Assay results: US20130090476A1, “Thiazolylpiperidine Derivatives as Fungicides” (priority 2009, published 2013)

Assay: logP determination by HPLC (EEC Directive 79/831 Annex V.A8), LC-MS
[1] = * acidic range, pH 2.7, 0.1% aqueous formic acid/acetonitrile
[2] = pH 2.7, log P (pH2.7), pH 2.7, value given in the preparation text
[3] = pH 2.7, logP, * acidic range, pH 2.7, 0.1% aqueous formic acid/acetonitrile

## S=C(Nc1cc(Cl)ccc1Cl)N1CCC(c2nc(CSc3nnnn3-c3ccccc3)cs2)CC1 [Compound I-52]
[1]
  logP: 3.77*

## Cc1ccc(C)c(CC(=O)N2CCC(c3nc(CSc4cccc5ccccc45)cs3)CC2)c1 [Compound I-43]
[1]
  logP: 4.86*

## COc1ccc(Cl)cc1NC(=O)N1CCC(c2nc(CSc3nnnn3-c3ccccc3)cs2)CC1 [Compound I-79]
[1]
  logP: 3.8*

## Cc1cc(C(F)(F)F)nn1CC(=O)N1CCC(c2nc(C[S+]([O-])c3nnnn3-c3ccccc3)cs2)CC1 (stereo not drawn) [Compound I-14, 2-[5-Methyl-3-(trifluoromethyl)-1H-pyrazol-1-yl]-1-[4-(4-{[(1-phenyl-1H-tetrazol-5-yl)sulphinyl]methyl}-1,3-thiazol-2-yl)piperidin-1-yl]ethanone]
[2]
  chromatographic logP: 2.69
[3]
  chromatographic logP: 2.69

## Cc1cc(C(F)(F)F)nn1CC(=O)N1CCC(c2nc(CSc3nnnn3-c3ccccc3)cs2)CC1 [Compound I-4, 2-[5-Methyl-3-(trifluoromethyl)-1H-pyrazol-1-yl]-1-[4-(4-{[(1-phenyl-1H-tetrazol-5-yl)sulphanyl]methyl}-1,3-thiazol-2-yl)piperidin-1-yl]ethanone]
[2]
  chromatographic logP: 3.25
[3]
  chromatographic logP: 3.25
pH 7.8, logP, ** neutral range, pH 7.8, 0.001 molar aqueous ammonium bicarbonate/acetonitrile
  chromatographic logP: 3.26

## Cc1cc(C(F)(F)F)nn1CC(=O)N1CCC(c2nc(CSC3=NOC(c4ccccc4)C3)cs2)CC1 (racemic) [Compound I-88]
[1]
  logP: 3.52*

## CC(C)(C)OC(=O)N1CCC(c2nc(CSC3=NOC(c4ccccc4)C3)cs2)CC1 (stereo not drawn) [IV-6, tert-Butyl 4-[4-({[5-phenyl-4,5-dihydro-1,2-oxazol-3-yl]sulphanyl}methyl)-1,3-thiazol-2-yl]piperidine-1-carboxylate]
[2]
  chromatographic logP: 4.25

## ClC1=NOC(c2ccccc2)C1 (stereo not drawn) [Compound X-1, 3-Chloro-5-phenyl-4,5-dihydro-1,2-oxazole]
[2]
  chromatographic logP: 2.36

## Cc1cc(C(F)(F)F)nn1CC(=O)N1CCC(c2nc(CSc3cccc4cccnc34)cs2)CC1 [Compound I-5, 1-(4-{4-[(Quinolin-8-ylsulphanyl)methyl]-1,3-thiazol-2-yl}piperidin-1-yl)-2-[5-methyl-3-(trifluoromethyl)-1H-pyrazol-1-yl]ethanone]
[2]
  chromatographic logP: 3
[3]
  chromatographic logP: 3

## Cc1ccc(C)c(NC(=O)N2CCC(c3nc(CSc4cccc5ccccc45)cs3)CC2)c1 [Compound I-47]
[1]
  logP: 4.37*

## CC(C)(C)OC(=O)N1CCC(c2nc(CSc3cccc4ccccc34)cs2)CC1 [IV-1, tert-Butyl 4-{4-[(1-naphthylsulphanyl)methyl]-1,3-thiazol-2-yl}piperidine-1-carboxylate]
[2]
  chromatographic logP: 5.33

## CC(C)(C)OC(=O)N1CCC(c2nc(CSc3cccc4cccnc34)cs2)CC1 [IV-5, tert-Butyl 4-{4-[(quinolin-8-ylsulphanyl)methyl]-1,3-thiazol-2-yl}piperidine-1-carboxylate]
[2]
  chromatographic logP: 3.71

## CC(C)(C)OC(=O)N1CCC(c2nc(CSC3CCCCC3)cs2)CC1 [IV-3, tert-Butyl 4-{4-[(cyclohexylsulphanyl)methyl]-1,3-thiazol-2-yl}piperidine-1-carboxylate]
[2]
  chromatographic logP: 5.45

## CC(C)(C)OC(=O)N1CCC(c2nc(CSC34CC5CC(CC(C5)C3)C4)cs2)CC1 [IV-2, tert-Butyl 4-(4-{[(3S,5S,7S)-adamantan-1-ylsulphanyl]methyl}-1,3-thiazol-2-yl)piperidine-1-carboxylate]
[2]
  chromatographic logP: 6.66

## CC(C)(C)OC(=O)N1CCC(c2nc(CSc3nnnn3-c3ccccc3)cs2)CC1 [IV-4, tert-Butyl 4-(4-{[(1-phenyl-1H-tetrazol-5-yl)sulphanyl]methyl}-1,3-thiazol-2-yl)piperidine-1-carboxylate]
[2]
  chromatographic logP: 3.91

## Cc1cc(C(F)(F)F)nn1CC(=O)N1CCC(c2nc(C[S+]([O-])C3CCCCC3)cs2)CC1 (stereo not drawn) [Compound I-11, 1-(4-{4-[(Cyclohexylsulphinyl)methyl]-1,3-thiazol-2-yl}piperidin-1-yl)-2-[5-methyl-3-(trifluoromethyl)-1H-pyrazol-1-yl]ethanone]
[2]
  chromatographic logP: 2.55
[3]
  chromatographic logP: 2.55
